In patent publication US9321762B2, “Quinazoline compounds, method for preparing the same and use thereof” (DEVELOPMENT CENTER FOR BIOTECHNOLOGY, priority 2013, dated 2016) one finds IC50 data, which are given here for 9 compounds.

Assay [1] relates to A375 melanoma cells and COLO205 colon cancer cells. Nature of the assay: Cell proliferation assay (CellTiter-96). The assay is classed as cell-based. The conditions noted are these: Homo sapiens; A375 or COLO205, 72 hours treatment; read-out: Cytotoxicity IC50 for A375 or COLO205. The procedure:
The anti-proliferative activities of compounds of formula (I) against B-Raf(V600E) mutant human cancer cell lines, A375 melanoma cells and COLO205 colon cancer cells, were measured using the CellTiter™-96 assay kit (Promega) following the manufacturer's instructions. In brief, the cells were maintained in DMEM containing 10% FCS and incubated at 37° C. in 5% CO2 atmosphere. Cells were plated at a density of 2,000 cells/well on a 96-well plate and incubated for 24 h. Then, these cells were treated with different concentrations of the test compounds and incubated for another 72 hours. At the end of the incubation, CellTiter™-96 Aqueous One Solution Reagent (Promega) was added and incubated for another 4.0 hours. Cell viability was determined by measuring absorbance at 490 nm using EMax® microplate reader (Molecular Devices). Data were processed and analyzed using GraphPad Prism.

The target in assay [2] is T1, C-Raf kinase (Homo sapiens, UniProt P04049).
T1 construct: purchased Upstate Biotechnology
T1 sequence (P04049 whole entry): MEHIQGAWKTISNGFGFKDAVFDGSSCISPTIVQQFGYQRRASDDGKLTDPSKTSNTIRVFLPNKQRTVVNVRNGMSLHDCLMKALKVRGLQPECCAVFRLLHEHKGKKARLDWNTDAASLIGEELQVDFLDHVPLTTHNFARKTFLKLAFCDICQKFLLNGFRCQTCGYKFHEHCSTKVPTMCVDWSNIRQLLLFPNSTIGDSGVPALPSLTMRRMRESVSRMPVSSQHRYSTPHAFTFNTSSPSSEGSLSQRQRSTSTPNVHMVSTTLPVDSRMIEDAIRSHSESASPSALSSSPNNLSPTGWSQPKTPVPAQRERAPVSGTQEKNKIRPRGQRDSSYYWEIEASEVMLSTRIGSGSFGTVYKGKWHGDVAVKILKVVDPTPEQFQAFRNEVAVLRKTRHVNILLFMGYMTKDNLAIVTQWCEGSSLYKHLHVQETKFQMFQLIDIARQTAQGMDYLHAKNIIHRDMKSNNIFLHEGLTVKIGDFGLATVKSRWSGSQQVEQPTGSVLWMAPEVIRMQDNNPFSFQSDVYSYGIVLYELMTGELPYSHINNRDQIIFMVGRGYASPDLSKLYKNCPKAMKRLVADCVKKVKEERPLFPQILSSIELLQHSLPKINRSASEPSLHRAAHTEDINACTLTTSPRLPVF
The assay can be described thus: C-Raf kinase assay ([33P] incorporation into MEK1(K97R)). The following applies: class symbols; 8 μM ATP; read-out: IC50 against C-Raf kinase. The assay is classed as biochemical. The procedure:
(§1) Inhibition of kinase activity by a test compound disclosed herein was estimated by quantifying the amount of [^33P] incorporation of a substrate in the presence of the test compound. Standard assay conditions were 2 ng of recombinant C-Raf kinase (Upstate Biotechnology) with 500 ng MEK1 (K97R) in assay buffer (8 μM ATP, 0.5 μCi [^33P] ATP (specific activity 3000 Ci/mmol, PerkinElmer), 50 mM Tris/HCl (pH7.5), and 1 mM EGTA, 1 mM Na3VO4, 1% 2-mercaptoethanol, 0.1% Brij 35, and 0.2 mg/ml BSA), and the test compound (diluted with 4% DMSO) or DMSO alone (as a control) in a final volume of 25 μL. Reactions were incubated at 30° C. for 30 min and stopped by adding 3% phosphoric acid, harvested onto a 96-well GF/B UniFilter (PerkinElmer) using a unifilter harvester (PerkinElmer), and counted with a TopCount microplate scintillation counter (PerkinElmer). The IC50 values of inhibitors were determined after carrying out assays at 3-fold serially diluted concentrations of each compound in duplication. The results were analyzed using linear regression software (GraphPad Prism 4; GraphPad Software Inc.).

Assay [3] concerns the target T2, VEGFR2 kinase (Homo sapiens, UniProt P35968).
T2 construct: VEGFR2 kinase domain alone, Millipore; purchased Millipore
The assay can be described thus: VEGFR2 radiometric kinase assay. The assay is classed as biochemical. The following applies: given as bound; 100 μM ATP; read-out: Inhibition activity, IC50 VEGFR2. The procedure:
(§2) The inhibitory activity against VEGFR2 or EGFR was determined by radiometric kinase assay. The experimental condition for VEGFR2 kinase assay was 6.25 ng of recombinant VEGFR2 kinase (VEGFR2 kinase domain alone, Millipore), 5 μg of substrate Poly(Glu-Tyr) (4:1, Sigma), kinase reaction buffer (20 mM MOPS pH 7.0, 1 mM EDTA, 5% glycerol, 0.01% Brij-35, 0.1% β-mercaptoethanol, 1 mg/mL BSA, 100 μM ATP, and 0.1 μCi per well [^33P] ATP (specific activity 3000 Ci/mmol, PerkinElmer)), and the test compound (diluted with 4% DMSO) or DMSO alone (as a control) in a final volume of 25 μL. Reactions were incubated at 30° C. for 30 min and stopped by adding 3% phosphoric acid, harvested onto a 96-well GF/B UniFilter (PerkinElmer) using a unifilter harvester (PerkinElmer), and counted with a TopCount microplate scintillation counter (PerkinElmer).
(§3) Results of inhibition activity against VEGFR2 and EGFR kinases by the selected compounds, which have IC50 values on B-Raf kinase <300 nM, are summarized in Table 6.

Assay [4] concerns the target T3, B-Raf kinase (Homo sapiens, UniProt P15056).
T3 construct: purchased Upstate Biotechnology
The assay can be described thus: B-Raf kinase assay ([33P] incorporation into MEK1(K97R)). The assay is classed as biochemical. The conditions noted are these: class symbols; 8 μM ATP; read-out: IC50 against B-Raf kinase. As for the experimental part: as §1, with “were 5” for “were 2”, “recombinant B-Raf” for “recombinant C-Raf”, “ng MEK1(K97R)” for “ng MEK1 (K97R)”, “μCi [^33P]ATP” for “μCi [^33P] ATP”, “mg/ml BSA)” for “mg/ml BSA), and the test compound (diluted with 4% DMSO) or DMSO alone (as a control)”

The target of assay [5] is T4, EGFR kinase (Homo sapiens, UniProt P00533).
T4 construct: EGFR kinase domain alone, Millipore; purchased Millipore
T4 sequence (P00533 712-979 limits assumed): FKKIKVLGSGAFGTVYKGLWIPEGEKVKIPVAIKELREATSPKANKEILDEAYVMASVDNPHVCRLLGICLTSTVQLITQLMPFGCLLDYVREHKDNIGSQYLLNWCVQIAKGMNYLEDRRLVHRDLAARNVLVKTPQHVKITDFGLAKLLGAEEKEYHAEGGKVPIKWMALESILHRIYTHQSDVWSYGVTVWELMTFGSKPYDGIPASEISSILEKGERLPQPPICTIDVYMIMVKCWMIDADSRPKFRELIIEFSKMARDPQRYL
Nature of the assay: EGFR radiometric kinase assay. The assay is classed as biochemical. The conditions noted are these: 100 μM ATP, read-out: Inhibition activity, IC50 EGFR. As for the experimental part: as §2
The experimental condition for EGFR kinase assay was 25 ng of EGFR kinase (EGFR kinase domain alone, Millipore), 3 μg of the substrate poly(Glu-Tyr), (Sigma), kinase reaction buffer (10 mM MOPS pH 7.0, 0.3 mM EDTA, 0.5% glycerol, 0.001% Brij-35, 10 mM MnCl2, 0.1 mg/ml BSA, 100 μM ATP, and 0.1 μCi per well [^33P]ATP (specific activity 3000 Ci/mmol, PerkinElmer)), and the test compound (diluted with 4% DMSO) or DMSO (as a control) in a final volume of 25 μL. Reactions were incubated at 30° C. for 30 min and stopped by adding 3% phosphoric acid, harvested onto a 96-well GF/B UniFilter (PerkinElmer) using a unifilter harvester (PerkinElmer), and counted with a TopCount microplate scintillation counter (PerkinElmer).
as §3

Assay [6] deals with T5, B-Raf(V600E) kinase (Homo sapiens, UniProt P15056, V600E).
T5 construct: purchased Upstate Biotechnology
T5 sequence (P15056 whole entry V600E): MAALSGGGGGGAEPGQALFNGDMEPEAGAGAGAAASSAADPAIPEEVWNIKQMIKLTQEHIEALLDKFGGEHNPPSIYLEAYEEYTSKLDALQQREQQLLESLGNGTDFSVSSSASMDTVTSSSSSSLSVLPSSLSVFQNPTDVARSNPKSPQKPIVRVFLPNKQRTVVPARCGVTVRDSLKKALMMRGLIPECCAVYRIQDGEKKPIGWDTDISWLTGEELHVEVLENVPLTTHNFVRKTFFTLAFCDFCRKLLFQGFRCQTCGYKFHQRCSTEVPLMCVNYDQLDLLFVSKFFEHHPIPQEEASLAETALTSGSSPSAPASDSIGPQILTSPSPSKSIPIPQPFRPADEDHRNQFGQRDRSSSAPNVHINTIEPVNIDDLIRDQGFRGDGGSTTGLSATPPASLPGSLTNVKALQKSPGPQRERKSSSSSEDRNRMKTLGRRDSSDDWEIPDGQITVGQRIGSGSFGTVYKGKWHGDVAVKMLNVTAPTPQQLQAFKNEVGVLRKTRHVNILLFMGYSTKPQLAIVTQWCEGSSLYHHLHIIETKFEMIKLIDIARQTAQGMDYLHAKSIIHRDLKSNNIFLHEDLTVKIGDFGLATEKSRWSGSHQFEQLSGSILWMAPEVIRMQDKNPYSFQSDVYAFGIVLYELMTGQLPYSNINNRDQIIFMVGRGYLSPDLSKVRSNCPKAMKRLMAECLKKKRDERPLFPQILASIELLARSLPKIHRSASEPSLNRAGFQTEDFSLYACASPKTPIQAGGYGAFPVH
The assay can be described thus: B-Raf(V600E) kinase assay ([33P] incorporation into MEK1(K97R)). The assay is classed as biochemical. The following applies: class symbols; 8 μM ATP; read-out: IC50 against B-Raf(V600E) kinase. As for the experimental part: as §1, with “were 5” for “were 2”, “recombinant B-Raf(V600E)” for “recombinant C-Raf”

Structures are written as SMILES. Where two headings read alike, the source gives them in different places.

T3 sequence (P15056 whole entry): as the sequence (P15056 whole entry V600E) above, with E600V counted along it
T2 sequence (P35968 834-1162 limits assumed): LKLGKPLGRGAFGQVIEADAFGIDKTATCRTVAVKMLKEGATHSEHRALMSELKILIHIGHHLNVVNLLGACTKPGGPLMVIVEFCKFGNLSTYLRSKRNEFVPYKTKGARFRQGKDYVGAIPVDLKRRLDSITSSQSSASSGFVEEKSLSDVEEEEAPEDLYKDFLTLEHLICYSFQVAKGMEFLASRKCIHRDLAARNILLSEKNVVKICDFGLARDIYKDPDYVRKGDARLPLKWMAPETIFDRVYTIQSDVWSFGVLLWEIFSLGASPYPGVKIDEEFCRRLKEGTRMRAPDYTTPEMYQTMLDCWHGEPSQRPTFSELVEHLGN

With `CCCS(=O)(=O)Nc1ccc(F)c(Nc2ncnc3ccc(-c4ccc(=O)[nH]c4)cc23)c1F` [compound 32, N-(2,4-difluoro-3-(6-(6-oxo-1,6-dihydropyridin-3-yl)quinazolin-4-ylamino)phenyl)propane-1-sulfonamide], the IC50 (commonly the point on the concentration scale where inhibition reaches its midpoint) in assay [1] is under 2 µM; in assay [2] it was 0.3 to 1 µM; in assay [3] it was over 3 µM; in assay [4], under 0.3 µM; in assay [5] (given as bound) it was over 3 µM; in assay [6], under 0.3 µM.
For the compound `CCCS(=O)(=O)Nc1ccc(F)c(Nc2ncnc3ccc(-c4cccc(C(F)(F)F)n4)cc23)c1F` [compound 62, N-(2,4-difluoro-3-(6-(6-(trifluoromethyl)pyridin-2-yl)quinazolin-4-ylamino)phenyl)propane-1-sulfonamide], the IC50 is under 2 µM in assay [1]; under 0.3 µM in assay [2]; over 3 µM in assay [3]; under 0.3 µM in assay [4]; 0.3 to 1 µM in assay [5] (class symbols); under 0.3 µM in assay [6].
For `CCCS(=O)(=O)Nc1ccc(F)c(Nc2ncnc3ccc(-c4ccnc(F)c4)cc23)c1F` [compound 24, N-(2,4-difluoro-3-(6-(2-fluoropyridin-4-yl)quinazolin-4-ylamino)phenyl)propane-1-sulfonamide], the IC50 in assay [1] was under 2 µM; in assay [2], 0.3 to 1 µM; in assay [3] it was over 3 µM; in assay [4], under 0.3 µM; in assay [5] (class symbols), 1 to 3 µM; in assay [6], under 0.3 µM.
With `CCCS(=O)(=O)Nc1ccc(F)c(Nc2ccnc3ccc(-c4ccnc(F)c4)cc23)c1F` [compound 25, N-(2,4-difluoro-3-(6-(2-fluoropyridin-4-yl)quinolin-4-ylamino)phenyl)propane-1-sulfonamide], the IC50 in assay [1] is under 2 µM; in assay [2], under 0.3 µM; in assay [3], over 3 µM; in assay [4] it was under 0.3 µM; in assay [5] (given as bound), over 3 µM; in assay [6], under 0.3 µM.
For the compound `CCCS(=O)(=O)Nc1ccc(F)c(Nc2ncnc3ccc(-c4cccnc4F)cc23)c1Cl` [compound 9, N-(2-chloro-4-fluoro-3-(6-(2-fluoropyridin-3-yl)quinazolin-4-ylamino)phenyl)propane-1-sulfonamide], the IC50 in assay [2], in assay [4] and in assay [6] was 1 to 10 µM throughout.
Regarding `CCCS(=O)(=O)Nc1ccc(F)c(C(=O)c2ncnc3ccc(-c4cccnc4F)cc23)c1F` [compound 48, N-(2,4-difluoro-3-(6-(2-fluoropyridin-3-yl)quinazoline-4-carbonyl)phenyl)propane-1-sulfonamide], the IC50 in assay [2] is under 0.3 µM; in assay [3] it was over 3 µM; in assay [4], under 0.3 µM; in assay [5] (given as bound), over 3 µM; in assay [6], under 0.3 µM.
`CCCS(=O)(=O)Nc1ccc(F)c(Nc2ncnc3ccc(-c4ccc(N(C)C)nc4)cc23)c1F` [compound 54, N-(3-(6-(6-(dimethylamino)pyridin-3-yl)quinazolin-4-ylamino)-2,4-difluorophenyl)propane-1-sulfonamide]: the IC50 in assay [2], in assay [4] and in assay [6] was 0.3 to 1 µM each time.
On to `CCCS(=O)(=O)Nc1ccc(F)c(Nc2ncnc3ccc(-c4cn[nH]c4)cc23)c1F` [compound 4, N-(3-(6-(1H-pyrazol-4-yl)quinazolin-4-ylamino)-2,4-difluorophenyl)propane-1-sulfonamide], for which the IC50 in assay [2] was under 0.3 µM; in assay [3], over 3 µM; in assay [4], under 0.3 µM; in assay [5] (class symbols) it was 0.3 to 1 µM; in assay [6], under 0.3 µM.
Consider `CCCS(=O)(=O)Nc1ccc(F)c(Nc2ncnc3ccc(-c4cnc(N(C)C)nc4)cc23)c1F` [compound 51, N-(3-(6-(2-(dimethylamino)pyrimidin-5-yl)quinazolin-4-ylamino)-2,4-difluorophenyl)propane-1-sulfonamide], for which the IC50 in assay [2] lay in the range of 1 to 10 µM; in assay [4], 0.3 to 1 µM; in assay [6] it was 0.3 to 1 µM.
